# Measured values taken from article PMC4097383 (Drug and alcohol dependence, 2013).
# B1: human cardiac calsequestrin (CASQ2) (natural protein)
# chain: GLNFPTYDGKDRVVSLSEKNFKQVLKKYDLLCLYYHEPVSSDKVTQKQFQLKEIVLELVAQVLEHKAIGFVMVDAKKEAKLAKKLGFDEEGSLYILKGDRTIEFDGEFAADVLVEFLLDLIEDPVEIISSKLEVQAFERIEDYIKLIGFFKSEDSEYYKAFEEAAEHFQPYIKFFATFDKGVAKKLSLKMNEVDFYEPFMDEPIAIPNKPYTEEELVEFVKEHQRPTLRRLRPEEMFETWEDDLNGIHIVAFAEKSDPDGYEFLEILKQVARDNTDNPDLSILWIDPDDFPLLVAYWEKTFKIDLFRPQIGVVNVTDADSVWMEIPDDDDLPTAEELEDWIEDVLSGKINTEDDDEDDDDDDNSDEEDNDDSDDDDDE
# What was measured:
# [1] = molecular target: T1, human cardiac calsequestrin (CASQ2) (Homo sapiens, UniProt O14958); experiment: isothermal titration calorimetry; type: binding
# T1 sequence (O14958 20-399): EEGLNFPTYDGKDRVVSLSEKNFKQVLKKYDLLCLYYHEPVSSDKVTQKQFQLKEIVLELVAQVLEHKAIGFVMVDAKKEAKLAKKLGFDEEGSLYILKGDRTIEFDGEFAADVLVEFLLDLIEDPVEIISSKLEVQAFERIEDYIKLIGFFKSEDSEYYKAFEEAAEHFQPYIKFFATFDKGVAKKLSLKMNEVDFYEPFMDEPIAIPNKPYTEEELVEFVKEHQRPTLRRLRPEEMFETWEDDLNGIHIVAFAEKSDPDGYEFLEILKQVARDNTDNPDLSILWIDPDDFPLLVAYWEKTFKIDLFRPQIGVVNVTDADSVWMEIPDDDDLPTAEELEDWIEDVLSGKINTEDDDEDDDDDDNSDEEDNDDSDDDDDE
# [2] = molecular target: T1, human cardiac calsequestrin (CASQ2); experiment: equilibrium dialysis and atomic absorption spectroscopy; type: biochemical; conditions: 350 μM cocaine, 1 mg/mL CASQ2, 1 h preincubation
# [3] = molecular target: the molecule itself; experiment: SEC-MALS
Molecule,Kd [1],% reduction in Ca2+ binding capacity at 350 μM [2],stoichiometry N [3]
COC(=O)[C@H]1[C@@H](OC(=O)c2ccccc2)C[C@@H]2CC[C@H]1N2C [cocaine],63.5 ± 2.7 µM,~ 50%,
B1,,,2
